Patent US20240336588A1, “COMPOSITIONS AND METHODS FOR ANTIOXIDANT AND ANTI-INFLAMMATORY THERAPEUTICS” (AVANTI BIOSCIENCES INC., priority 2021, published 2024)

Legend:
[1] = target: DYRK1B (GST tagged full length human DYRK1B isoform p65) (Homo sapiens (Human), UniProt Q9Y463); experiment: DYRK1B ELISA assay; type: biochemical; details: 70 ng GST-DYRK1B, kinase reaction time 60 min
Method: (§1) DYRK1A assay. […] After blocking, wells were washed extensively with dilution buffer before subjecting to phosphorylation. […] At the end point, wells were washed with ˜350 μl dilution buffer three times to terminate the reaction. […] Each point was run in quadruplicate with DMSO present in all assays at 0.2% final concentration. […] HT-PRD phosphorylation was subsequently determined by the sandwich antibody staining protocol, first with 100 μl mouse mAb 3D3 specific for detecting DYRK1A-phosphorylated PRD (60 min at room temperature) then with 100 μl alkaline phosphatase (AP)-linked anti-mouse secondary antibody (60 min at room temperature), followed by colorimetric reaction with 100 μl PNPP solution (PNPP substrate tablet, Thermo Fisher). […] The readings were then recorded for subsequent IC50 calculation. The DYRK1A assay protocol can also support DYRK1B and DYRK2 phosphorylation reactions in the enzyme concentration-dependent manner; therefore, the method was adapted for measuring the activity of candidate compounds against DYRK1B and DYRK2. For DYRK2, the reactions were performed as described above with 6 ng HT-DYRK2 (6×His tagged full-length human DYRK2 isoform 1). For DYRK1B, the assays were also similarly conducted but with 70 ng GST-DYRK1B (glutathione S-transferase tagged full length human DYRK1B isoform p65) and an extended kinase reaction time of 60 min.
(§2) Data transformation, calculation, plotting, curve fitting, and IC 50 calculation were performed in KaleidaGraph (http://www.synergy.com/wordpress_650164087; Mac version 4.1). Data was corrected for background (readings from wells with only PNPP) before subsequent manipulations. […] The resulting residual activity was then plotted against its corresponding inhibitor concentrations in semi-log graph and the plot was fit to the sigmoidal equation, y=a+(b−a)/(1+(x/c)^d), for IC50 calculation.
Compounds of Table 1, above, were examined in vitro for activity against DYRK1B, via an ELISA assay.

[2] = system: MOG35-55-induced chronic progressive Experimental Autoimmune Encephalomyelitis (EAE); experiment: MOG35-55-induced murine model of chronic progressive EAE; type: in vivo, mice; details: for activity in the EAE model (reference compounds): reference compound
Text: Compound 40 of Table 1 was examined for application in neurodegenerative disorders using a MOG35-55-induced murine model of chronic progressive Experimental Autoimmune Encephalomyelitis (EAE), an inflammation model predictive for multiple sclerosis (MS).
Without being bound by theory, the present inventors note that compound 40 could have a peripheral immunomodulation effect and an overall neuroprotective effect, which could have advantageous implications for the treatment of neurodegenerative disorders like Alzheimer's disease and Multiple Sclerosis.

[3] = target: DYRK1A (HT-497, 6×His tagged rat truncated DYRK1A isoform X1 residues 1-497) (Rattus norvegicus (Rat), UniProt Q63470); experiment: DYRK1A ELISA assay (HT-PRD phosphorylation); type: biochemical; details: 100 µM ATP, 5 ng HT-497, 30 min at 30° C.
Method: Compounds of Table 1, above, were examined in vitro for activity against DYRK1A, DYRK1B, DYRK2 via an ELISA assay.
as §1
Dilution factors for both mAb 3D3 and secondary antibody were pre-determined for each batch of antibody to ensure that neither antibody was limiting in the assay.
as §2

DYRK2 = DYRK2 (Homo sapiens (Human), UniProt Q92630); details: literature value; cited from earlier work
Chain of DYRK2 (Q92630 whole entry, species assumed): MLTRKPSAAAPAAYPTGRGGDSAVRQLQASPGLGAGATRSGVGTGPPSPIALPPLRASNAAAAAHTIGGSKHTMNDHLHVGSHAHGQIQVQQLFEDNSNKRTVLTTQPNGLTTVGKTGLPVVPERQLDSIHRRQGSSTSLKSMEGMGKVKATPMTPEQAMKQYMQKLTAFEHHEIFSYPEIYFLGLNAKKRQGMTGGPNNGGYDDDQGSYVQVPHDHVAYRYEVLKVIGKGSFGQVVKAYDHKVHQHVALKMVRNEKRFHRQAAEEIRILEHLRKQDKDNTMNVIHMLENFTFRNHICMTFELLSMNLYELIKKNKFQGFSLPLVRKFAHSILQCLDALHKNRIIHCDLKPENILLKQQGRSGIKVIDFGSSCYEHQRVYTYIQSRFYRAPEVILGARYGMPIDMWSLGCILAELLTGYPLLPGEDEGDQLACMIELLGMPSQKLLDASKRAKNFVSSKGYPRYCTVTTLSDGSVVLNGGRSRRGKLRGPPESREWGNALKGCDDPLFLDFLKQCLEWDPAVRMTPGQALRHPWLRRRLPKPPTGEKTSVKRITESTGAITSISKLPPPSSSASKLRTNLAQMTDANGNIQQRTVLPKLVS

[4] = twice daily intranasal administration, 15 mg/kg

Chain of DYRK1B (GST tagged full length human DYRK1B isoform p65) (Q9Y463 other isoform, or with tags, fused parts or gaps): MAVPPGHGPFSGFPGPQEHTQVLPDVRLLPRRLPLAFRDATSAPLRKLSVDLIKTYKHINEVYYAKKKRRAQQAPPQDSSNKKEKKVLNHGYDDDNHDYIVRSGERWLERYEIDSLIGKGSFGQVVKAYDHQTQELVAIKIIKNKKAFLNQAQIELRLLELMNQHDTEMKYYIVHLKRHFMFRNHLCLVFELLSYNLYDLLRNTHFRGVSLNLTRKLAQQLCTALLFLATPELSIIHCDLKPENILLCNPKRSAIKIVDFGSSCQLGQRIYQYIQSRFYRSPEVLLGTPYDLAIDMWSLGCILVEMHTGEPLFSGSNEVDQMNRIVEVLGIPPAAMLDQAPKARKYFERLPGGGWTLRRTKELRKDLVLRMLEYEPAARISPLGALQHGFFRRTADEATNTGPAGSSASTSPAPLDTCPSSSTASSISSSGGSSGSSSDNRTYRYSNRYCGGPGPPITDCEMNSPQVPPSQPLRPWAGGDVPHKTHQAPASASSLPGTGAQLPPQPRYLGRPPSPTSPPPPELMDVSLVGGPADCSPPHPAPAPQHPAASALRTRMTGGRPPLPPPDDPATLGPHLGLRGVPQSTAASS

Row | Compound | IC50 [3] [nM] | further results
1 | O=C(O[C@@H]1Cc2c(O)cc(O)cc2O[C@H]1c1cc(O)c(O)c(O)c1)c1cc(O)c(O)c(O)c1F [Compound 40, (2S,3R)-5,7-dihydroxy-2-(3,4,5-trihydroxyphenyl)chroman-3-yl 2-fluoro-3,4,5-trihydroxybenzoate] | < 100 | IC50 [1]: < 100 nM; axons and myelin during chronic EAE ([2]; Bielschowsky silver staining (neurofilaments), LFB staining (myelin)): preserved axons and myelin; spinal cord inflammation, hematoxylin and eosin staining ([2]; compared to the vehicle control group): significant spinal cord inflammation reductions; lesion severity scores, histopathology of spinal cord section ([2]; treated intranasally, compared to the other treatment groups, FIG. 2): significant (p<0.001) reductions in lesion severity scores; reduction of brain IFNγ [2, 4]: 90%; reduction of brain IL-17 [2, 4]: 79%; effect on disease course (EAE) ([2]; twice daily intranasal administration, 15 mg/kg, FIG. 1): reversal of the disease
2 | O=C(O[C@@H]1Cc2c(O)cc(O)cc2O[C@@H]1c1cc(O)c(O)c(O)c1)c1cc(O)c(O)c(O)c1 [Compound 3, (2R,3R)-5,7-dihydroxy-2-(3,4,5-trihydroxyphenyl)chroman-3-yl 3,4,5-trihydroxybenzoate, reference compound] |  | activity in the EAE model (reference compounds) ([2]; FIG. 1): no significant activity
3 | O=C(O[C@@H]1Cc2c(O)cc(O)cc2O[C@H]1c1cc(O)c(O)c(O)c1)c1c(F)c(O)c(O)c(O)c1F [Compound 51, (2S,3R)-5,7-dihydroxy-2-(3,4,5-trihydroxyphenyl)chroman-3-yl 2,6-difluoro-3,4,5-trihydroxybenzoate] | < 100 | IC50 [1]: < 100 nM
4 | COc1cc(N2CCN(C)CC2)ccc1Nc1nccc(-c2cn(C)c3cnccc23)n1 [AZ-191] |  | IC50 (DYRK2): 1890 nM
5 | CCCCCCCCc1ccc(CCC(N)(CO)CO)cc1 [FTY720, Fingolimod, reference compound] |  | activity in the EAE model (reference compounds) ([2]; FIG. 1): reversal of the disease
6 | O=C(O[C@@H]1Cc2c(O)cc(O)cc2O[C@H]1c1ccc(O)c(O)c1)c1cc(O)c(O)c(O)c1F [Compound 55, (2S,3R)-2-(3,4-dihydroxyphenyl)-5,7-dihydroxychroman-3-yl 2-fluoro-3,4,5-trihydroxybenzoate] | < 100 | IC50 [1]: > 100 nM
7 | O=C(O[C@@H]1Cc2c(O)cc(O)cc2O[C@@H]1c1cc(O)c(O)c(O)c1)c1ccc(O)c(O)c1 [Compound 11, (2R,3R)-5,7-dihydroxy-2-(3,4,5-trihydroxyphenyl)chroman-3-yl 3,4-dihydroxybenzoate] | > 100 | 
8 | COc1c(O)c(O)c(F)c(C(=O)O[C@@H]2Cc3c(O)cc(O)cc3O[C@H]2c2ccc(O)c(O)c2)c1F [Compound 64, (2S,3R)-2-(3,4-dihydroxyphenyl)-5,7-dihydroxychroman-3-yl 2,6-difluoro-3,4-dihydroxy-5-methoxybenzoate] | > 100 | 
9 | COc1c(O)c(O)cc(C(=O)O[C@@H]2Cc3c(O)cc(O)cc3O[C@H]2c2cc(O)c(O)c(O)c2)c1F [Compound 50, (2S,3R)-5,7-dihydroxy-2-(3,4,5-trihydroxyphenyl)chroman-3-yl 2-fluoro-4,5-dihydroxy-3-methoxybenzoate] | > 100 | 
10 | O=C(O[C@@H]1Cc2c(O)cc(O)cc2O[C@H]1c1ccc(O)c(O)c1)c1ccc(O)c(O)c1 [Compound 31, (2S,3R)-2-(3,4-dihydroxyphenyl)-5,7-dihydroxychroman-3-yl 3,4-dihydroxybenzoate] | > 100 | 
11 | O=C(N[C@H]1Cc2c(O)cc(O)cc2O[C@@H]1c1cc(O)c(O)c(O)c1)c1ccc(O)c(O)c1 [Compound 15, N-((2R,3S)-5,7-dihydroxy-2-(3,4,5-trihydroxyphenyl)chroman-3-yl)-3,4-dihydroxybenzamide] | > 1000 | 
12 | O=C(O[C@@H]1Cc2ccccc2C[C@H]1c1cc(O)c(O)c(O)c1)c1cc(O)c(O)c(O)c1 [Compound 53, (2R,3S)-3-(3,4,5-trihydroxyphenyl)-1,2,3,4-tetrahydronaphthalen-2-yl 3,4,5-trihydroxybenzoate] | > 1000 | 
13 | O=C(O[C@H]1Cc2c(O)cc(O)cc2O[C@@H]1c1cc(O)c(O)c(O)c1)c1cnc(O)c(O)c1 [Compound 27, (2R,3S)-5,7-dihydroxy-2-(3,4,5-trihydroxyphenyl)chroman-3-yl 5,6-dihydroxynicotinate] | > 100 | 
14 | O=C(O[C@@H]1Cc2c(O)cc(O)cc2O[C@H]1c1cc(O)c(O)c(O)c1F)c1cc(O)c(O)c(O)c1 [Compound 46, (2S,3R)-2-(2-fluoro-3,4,5-trihydroxyphenyl)-5,7-dihydroxychroman-3-yl 3,4,5-trihydroxybenzoate] | < 100 | 
15 | Cc1cc(O)c(O)cc1[C@@H]1Oc2cc(O)cc(O)c2C[C@H]1OC(=O)c1cc(O)c(O)c(O)c1F [Compound 52, (2S,3R)-2-(4,5-dihydroxy-2-methylphenyl)-5,7-dihydroxychroman-3-yl 2-fluoro-3,4,5-trihydroxybenzoate] | > 100 | 
16 | O=C(O[C@@H]1Cc2c(O)cc(O)cc2O[C@H]1c1cc(O)c(O)c(O)c1)c1cc(O)c(O)cc1O [Compound 42, (2S,3R)-5,7-dihydroxy-2-(3,4,5-trihydroxyphenyl)chroman-3-yl 2,4,5-trihydroxybenzoate] | > 100 | 
17 | CS(=O)(=O)Nc1ccc(C(=O)O[C@H]2Cc3c(O)cc(O)cc3O[C@@H]2c2ccc(O)c(O)c2)cc1O [Compound 30, (2R,3S)-2-(3,4-dihydroxyphenyl)-5,7-dihydroxychroman-3-yl 3-hydroxy-4-(methylsulfonamido)benzoate] | > 1000 | 
18 | CCNC(=O)Oc1cc(C(=O)O[C@@H]2Cc3c(O)cc(O)cc3O[C@@H]2c2cc(O)c(O)c(O)c2)cc(O)c1O [Compound 12, (2R,3R)-5,7-dihydroxy-2-(3,4,5-trihydroxyphenyl)chroman-3-yl 3-((ethylcarbamoyl)oxy)-4,5-dihydroxybenzoate] | > 100 | 
19 | O=C(O[C@@H]1Cc2c(O)cc(O)cc2O[C@H]1c1cc(O)c(O)c(O)c1F)c1cc(O)c(O)c(O)c1F [Compound 47, (2S,3R)-2-(2-fluoro-3,4,5-trihydroxyphenyl)-5,7-dihydroxychroman-3-yl 2-fluoro-3,4,5-trihydroxybenzoate] | < 100 | 
